The values below come from ChEMBL document CHEMBL1697723, “A predictive ligand-based Bayesian model for human drug-induced liver injury” (Drug Metab Dispos, 2010).

Molecules are shown by their SMILES. Starred links: 1 amine or outer side, 2 acyl side, 3 side chain; linkers in the order of their positions; H or OH if unused. Positions of bridges follow the written chain, without caps; N, C: chain ends. Non-standard residues stand in square brackets, D forms with d. Residues, ends and D or L forms follow the SMILES beside them. Chains are numbered I, II in the order given. Actinocin(9to1) = Cc1c2oc3c(C)ccc(C(=O)[*:1])c3nc-2c(C(=O)[*:2])c(N)c1=O; NMeV = CN[C@H](C(=O)O)C(C)C; Sar = CNCC(=O)O

The test system of one data set is Hepatotoxicity. The data set can be described thus: Human drug-induced liver injury (DILI) modelling dataset from Ekins et al.
Details: not given
As for `CCC[C@@H]1C[C@@H](C(=O)N[C@@H]([C@H]2O[C@H](SC)[C@H](O)[C@@H](O)[C@H]2O)[C@H](C)Cl)N(C)C1.Cl` [CLINDAMYCIN HYDROCHLORIDE], the Hepatotoxicity entry is recorded as “DILI positive (test set)”.
Regarding `CCOC(=O)C(C)(C)Oc1ccc(Cl)cc1` [CLOFIBRATE], the Hepatotoxicity result was “DILI positive (test set)”.
Take `CCN(CC)CCOc1ccc(C(=C(Cl)c2ccccc2)c2ccccc2)cc1` [CLOMIPHENE]: the Hepatotoxicity result was “DILI positive (training set)”.
`CN(C)CCCN1c2ccccc2CCc2ccc(Cl)cc21` [CLOMIPRAMINE]: the Hepatotoxicity entry is reported as “DILI positive (training set)”.
As for `Clc1ccccc1C(c1ccccc1)(c1ccccc1)n1ccnc1` [CLOTRIMAZOLE], the Hepatotoxicity result is on record as “DILI negative (training set)”.
For `Cc1onc(-c2ccccc2Cl)c1C(=O)N[C@@H]1C(=O)N2[C@@H]1SC(C)(C)[C@@H]2C(=O)[O-].O.[Na+]` [CLOXACILLIN SODIUM], the Hepatotoxicity entry is recorded as “DILI positive (test set)”.
Same read-out and setting: with `CN1CCN(C2=Nc3cc(Cl)ccc3Nc3ccccc32)CC1` [CLOZAPINE] the entry was “DILI positive (training set)”.
In the case of `COc1cc2c(c(OC)c1OC)-c1ccc(OC)c(=O)cc1[C@@H](NC(C)=O)CC2` [COLCHICINE], the Hepatotoxicity entry is on record as “DILI negative (training set)”.
On to `O=C(O)c1cc(=O)c2c(OCC(O)COc3cccc4oc(C(=O)O)cc(=O)c34)cccc2o1` [CROMOLYN], for which the Hepatotoxicity result is “DILI negative (training set)”.
Consider `CN1CCN(C(c2ccccc2)c2ccccc2)CC1` [CYCLIZINE], for which the Hepatotoxicity result is on record as “DILI positive (test set)”.
For `CN1CCC(=C2c3ccccc3C=Cc3ccccc32)CC1.Cl` [CYPROHEPTADINE HYDROCHLORIDE], the Hepatotoxicity entry is listed as “DILI positive (training set)”.
Take `CC(=O)O[C@]1(C(C)=O)CC[C@H]2[C@@H]3C=C(Cl)C4=CC(=O)[C@@H]5C[C@@H]5[C@]4(C)[C@H]3CC[C@@]21C` [CYPROTERONE ACETATE]: the Hepatotoxicity result is recorded as “DILI positive (training set)”.
In the case of `C=C(C)[C@H]1CC=C(C)CC1` [D-LIMONENE], the Hepatotoxicity result is on record as “DILI positive (test set)”.
Take `CN(C)/N=N/c1[nH]cnc1C(N)=O` [DACARBAZINE]: the Hepatotoxicity result is given as “DILI positive (test set)”.
The same measure, in the same setting: with `Cc1c2oc3c(C)ccc(C(=O)N[C@@H]4C(=O)N[C@H](C(C)C)C(=O)N5CCC[C@H]5C(=O)N(C)CC(=O)N(C)[C@@H](C(C)C)C(=O)O[C@@H]4C)c3nc-2c(C(=O)N[C@@H]2C(=O)N[C@H](C(C)C)C(=O)N3CCC[C@H]3C(=O)N(C)CC(=O)N(C)[C@@H](C(C)C)C(=O)O[C@@H]2C)c(N)c1=O` [DACTINOMYCIN] (I: T[dV]P[Sar][NMeV] / II: T[dV]P[Sar][NMeV]; ester I:1-I:C, II:1-II:C; linker I:N-II:N via Actinocin(9to1)) the entry was “DILI positive (test set)”.
Same read-out and setting: the result for `C#C[C@]1(O)CC[C@H]2[C@@H]3CCC4=Cc5oncc5C[C@]4(C)[C@H]3CC[C@@]21C` [DANAZOL] reads “DILI positive (training set)”; that for `O=C1CN(/N=C/c2ccc(-c3ccc([N+](=O)[O-])cc3)o2)C(=O)[N-]1.[Na+]` [DANTROLENE SODIUM], “DILI positive (training set)”; that for `CC(=O)N(O)CCCCCNC(=O)CCC(=O)N(O)CCCCCNC(=O)CCC(=O)N(O)CCCCCN.CS(=O)(=O)O` [DEFEROXAMINE MESYLATE], “DILI positive (training set)”.
In the case of `CN(C)[C@@H]1C(O)=C(C(N)=O)C(=O)[C@@]2(O)C(O)=C3C(=O)c4c(O)ccc(Cl)c4[C@@H](O)[C@H]3C[C@@H]12.Cl` [DEMECLOCYCLINE HYDROCHLORIDE], the Hepatotoxicity entry was “DILI positive (training set)”.
Consider `C[C@@H]1C[C@H]2[C@@H]3CCC4=CC(=O)C=C[C@]4(C)[C@@]3(F)[C@@H](O)C[C@]2(C)[C@@]1(O)C(=O)CO` [DEXAMETHASONE], for which the Hepatotoxicity result is “DILI negative (training set)”.
The same measure, in the same setting: the result for `C[C@H](N)Cc1ccccc1.C[C@H](N)Cc1ccccc1.O=S(=O)(O)O` [DEXTROAMPHETAMINE SULFATE] reads “DILI positive (test set)”; that for `Br.COc1ccc2c(c1)[C@]13CCCC[C@@H]1[C@H](C2)N(C)CC3.O` [DEXTROMETHORPHAN HYDROBROMIDE], “DILI negative (training set)”.
For `Cc1onc(-c2c(Cl)cccc2Cl)c1C(=O)N[C@@H]1C(=O)N2[C@@H]1SC(C)(C)[C@@H]2C(=O)[O-].O.[Na+]` [DICLOXACILLIN SODIUM], the Hepatotoxicity entry is given as “DILI positive (test set)”.
As to `O=c1[nH]cnc2c1ncn2[C@H]1CC[C@@H](CO)O1` [DIDANOSINE], the Hepatotoxicity entry is given as “DILI positive (training set)”.
Still for that read-out and setting: with `CCN(CC)C(=O)N1CCN(C)CC1` [DIETHYLCARBAMAZINE] the entry was “DILI positive (training set)”; with `C[C@H]1O[C@@H](O[C@H]2[C@@H](O)C[C@H](O[C@H]3[C@@H](O)C[C@H](O[C@H]4CC[C@@]5(C)[C@H](CC[C@@H]6[C@@H]5C[C@@H](O)[C@]5(C)[C@@H](C7=CC(=O)OC7)CC[C@]65O)C4)O[C@@H]3C)O[C@@H]2C)C[C@H](O)[C@@H]1O` [DIGOXIN], “DILI negative (training set)”; with `COc1ccc([C@@H]2Sc3ccccc3N(CCN(C)C)C(=O)[C@@H]2OC(C)=O)cc1.Cl` [DILTIAZEM HYDROCHLORIDE], “DILI negative (training set)”.
Still for that read-out and setting: the result for `O=C1CCC(=O)N1c1cc(Cl)cc(Cl)c1` [DIMETHACHLON] reads “DILI positive (test set)”.
With `CCOC(=O)C1(c2ccccc2)CCN(CCC(C#N)(c2ccccc2)c2ccccc2)CC1.Cl` [DIPHENOXYLATE HYDROCHLORIDE], the Hepatotoxicity entry was “DILI negative (test set)”.
As for `CC(C)N(CCC(C(N)=O)(c1ccccc1)c1ccccn1)C(C)C.O=P(O)(O)O` (stereo unspecified) [DISOPYRAMIDE PHOSPHATE], the Hepatotoxicity result was “DILI positive (training set)”.
In the case of `CC(CCc1ccc(O)cc1)NCCc1ccc(O)c(O)c1.Cl` (stereo unspecified) [DOBUTAMINE HYDROCHLORIDE], the Hepatotoxicity entry is “DILI negative (training set)”.
As to `COc1cc2c(cc1OC)C(=O)C(CC1CCN(Cc3ccccc3)CC1)C2` (stereo unspecified) [DONEPEZIL], the Hepatotoxicity entry is recorded as “DILI negative (training set)”.
On to `COc1cccc2c1C(=O)c1c(O)c3c(c(O)c1C2=O)C[C@@](O)(C(=O)CO)C[C@@H]3O[C@H]1C[C@H](N)[C@H](O)[C@H](C)O1.Cl` [DOXORUBICIN HYDROCHLORIDE], for which the Hepatotoxicity entry was “DILI positive (test set)”.

The data set is the same for the next values; noted with them: Liver.
Regarding `Cl.Clc1cccc(Cl)c1NC1=NCCN1` [CLONIDINE HYDROCHLORIDE], the Hepatotoxicity result was “DILI positive (training set)”.
In the case of `O=P1(N(CCCl)CCCl)NCCCO1` (stereo unspecified) [CYCLOPHOSPHAMIDE ANHYDROUS], the Hepatotoxicity result was “DILI positive (training set)”.
As to `Nc1ccc(S(=O)(=O)c2ccc(N)cc2)cc1` [DAPSONE], the Hepatotoxicity entry is on record as “DILI positive (training set)”.
In the case of `CNCCCN1c2ccccc2CCc2ccccc21` [DESIPRAMINE], the Hepatotoxicity result was “DILI negative (training set)”.
On to `O=C(O)c1cc(-c2ccc(F)cc2F)ccc1O` [DIFLUNISAL], for which the Hepatotoxicity result is reported as “DILI positive (training set)”.
Consider `OCC(S)CS` (stereo unspecified) [DIMERCAPROL], for which the Hepatotoxicity result is recorded as “DILI positive (test set)”.
Same read-out and setting: the result for `c1cc[n+]2c(c1)-c1cccc[n+]1CC2` [DIQUAT] reads “DILI positive (test set)”.
As for `NCCc1ccc(O)c(O)c1` [DOPAMINE], the Hepatotoxicity result is on record as “DILI negative (training set)”.
